# Data from BindingDB's records for PubMed 8102785 (University of Pennsylvania, 1993).
# pKi: −log10 of the molar value. Where a SMILES comes first, the peptide text is derived from it. Bridges are numbered along the chain shown (N, C = ends). [ ]: non-standard residue; d: D form. The star is where a group is joined. ξ: configuration not given here. NH(1-naphthylmethyl) = c1ccc2c(CN*)cccc2c1; Phe(4-Cl) = N[C@@H](Cc1ccc(Cl)cc1)C(=O)O; 2Nal = N[C@@H](Cc1ccc2ccccc2c1)C(=O)O; d1Nal = N[C@H](Cc1cccc2ccccc12)C(=O)O; d2Nal = N[C@H](Cc1ccc2ccccc2c1)C(=O)O; dThr(3ξ) = CC(O)[C@@H](N)C(=O)O; Thr(3ξ) = CC(O)[C@H](N)C(=O)O; ξF = NC(Cc1ccccc1)C(=O)O; X2 = CC(O)[C@H](CO)N*; Ahp = NCCCCCCC(=O)O; ξC = NC(CS)C(=O)O
# Molecular target: Somatostatin receptor type 4 (Rattus norvegicus, UniProt P30937)
# Sequence (P30937 whole entry): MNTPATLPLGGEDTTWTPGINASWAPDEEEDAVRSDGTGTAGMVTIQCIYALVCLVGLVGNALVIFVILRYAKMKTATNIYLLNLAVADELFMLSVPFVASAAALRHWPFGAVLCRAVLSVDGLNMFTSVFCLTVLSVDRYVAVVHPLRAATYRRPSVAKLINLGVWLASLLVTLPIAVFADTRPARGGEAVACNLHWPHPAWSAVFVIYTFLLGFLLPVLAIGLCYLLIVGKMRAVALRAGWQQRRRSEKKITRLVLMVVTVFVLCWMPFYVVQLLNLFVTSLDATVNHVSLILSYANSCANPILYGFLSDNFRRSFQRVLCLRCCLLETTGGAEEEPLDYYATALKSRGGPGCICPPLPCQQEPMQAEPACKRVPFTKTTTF
row,pKi,SMILES
1,8.49,C[C@@H](O)[C@@H]1NC(=O)[C@H](CCCCN)NC(=O)[C@@H](Cc2c[nH]c3ccccc23)NC(=O)[C@H](Cc2ccccc2)NC(=O)[C@@H]2CCCN2C(=O)[C@H](Cc2ccccc2)NC1=O (cyclo(PF[dW]KTF))
2,8.92,"C[C@@H](O)[C@@H]1NC(=O)[C@H](CCCCN)NC(=O)[C@@H](Cc2c[nH]c3ccccc23)NC(=O)[C@H](Cc2ccccc2)NC(=O)[C@@H]2CSSCC(NC1=O)C(=O)NCCCCCCC(=O)N2 [(1R,4S,7S,10R,13S,16R)-4-[(R)-1-Hydroxyethyl]-7-(4-aminobutyl)-10-(1H-indole-3-ylmethyl)-13-benzyl-28,29-dithia-2,5,8,11,14,17,25-heptaazabicyclo[14.10.4]triacontane-3,6,9,12,15,18,26-heptone] (cyclo([Ahp]CF[dW]KT[ξC]); disulfide 2-7)"
3,9.72,CC1NC(=O)C(CCCCN)NC(=O)C(Cc2c[nH]c3ccccc23)NC(=O)C(Cc2ccc(O)cc2)NC(=O)C(NC(=O)C(N)Cc2ccccc2)CSSCC(C(=O)NCc2cccc3ccccc23)NC1=O (stereo unspecified) [BIM 23034] (H-FCYWKAC-{NH(1-naphthylmethyl)}; disulfide 2-7; configuration not given here)
4,8.28,CC(C)[C@@H]1NC(=O)[C@H](CCCCN)NC(=O)[C@@H](Cc2c[nH]c3ccccc23)NC(=O)[C@H](Cc2ccc(O)cc2)NC(=O)[C@@H](NC(=O)[C@H](N)Cc2ccc3ccccc3c2)CSSC[C@@H](C(=O)N[C@@H](Cc2ccc3ccccc3c2)C(N)=O)NC1=O [BIM 23042] (H-[d2Nal]CY[dW]KVC[2Nal]-NH2; disulfide 2-7)
5,7.28,CC(O)[C@H](NC(=O)[C@H](CCCCN)NC(=O)[C@@H](Cc1c[nH]c2ccccc12)NC(=O)[C@H](Cc1ccccc1)NC(=O)[C@@H](C)NC(=O)[C@@H](N)Cc1ccccc1)C(=O)N[C@@H](C)C(=O)N[C@H](C(N)=O)[C@@H](C)O (stereo partly specified) [BIM 23051] (H-F[dA]F[dW]K[Thr(3ξ)]AT-NH2)
6,7.37,CC(C)[C@H](NC(=O)[C@H](CCCCN)NC(=O)[C@@H](Cc1c[nH]c2ccccc12)NC(=O)[C@H](Cc1ccc(O)cc1)NC(=O)[C@H](Cc1ccccc1)NC(=O)[C@H](N)Cc1ccccc1)C(=O)N[C@@H](Cc1ccccc1)C(=O)N[C@H](Cc1cccc2ccccc12)C(N)=O [BIM 23056] (H-[dF]FY[dW]KVF[d1Nal]-NH2)
7,8.09,CC(C)[C@H](NC(=O)[C@H](CCCCN)NC(=O)[C@@H](Cc1c[nH]c2ccccc12)NC(=O)[C@H](Cc1ccc(O)cc1)NC(=O)[C@H](Cc1ccc(Cl)cc1)NC(=O)[C@H](N)Cc1ccccc1)C(=O)N[C@@H](Cc1ccccc1)C(=O)N[C@H](C(N)=O)[C@@H](C)O [BIM 23057] (H-[dF][Phe(4-Cl)]Y[dW]KVFT-NH2)
8,10.05,CC(O)C1NC(=O)C(CCCCN)NC(=O)C(Cc2c[nH]c3ccccc23)NC(=O)C(Cc2ccc(O)cc2)NC(=O)C(NC(=O)C(N)Cc2ccccc2)CSSCC(C(=O)NCc2cccc3ccccc23)NC1=O (stereo unspecified) [BIM 23060] (H-FCYWKTC-{NH(1-naphthylmethyl)}; disulfide 2-7; configuration not given here)

row,SMILES,pKi
1,CC(C)[C@@H]1NC(=O)[C@@H](CCCCN)NC(=O)[C@@H](Cc2c[nH]c3ccccc23)NC(=O)[C@@H](Cc2ccc(O)cc2)NC(=O)[C@@H](C)N(C)C(=O)[C@@H](Cc2ccccc2)NC1=O,7.59
2,CC(O)[C@H](CO)NC(=O)[C@@H]1CSSCC(NC(=O)C(N)Cc2ccccc2)C(=O)N[C@H](Cc2ccccc2)C(=O)N[C@H](Cc2c[nH]c3ccccc23)C(=O)N[C@H](CCCCN)C(=O)N[C@H](C(C)O)C(=O)N1 (stereo partly specified) (H-[ξF][ξC][dF][dW][dK][dThr(3ξ)]C-X2; disulfide 2-7),9.24
3,CC(C)[C@@H]1NC(=O)[C@H](CCCCN)NC(=O)[C@@H](Cc2c[nH]c3ccccc23)NC(=O)[C@H](Cc2ccc(O)cc2)NC(=O)[C@@H](NC(=O)[C@H](N)Cc2ccc3ccccc3c2)CSSC[C@@H](C(=O)N[C@H](C(N)=O)[C@@H](C)O)NC1=O [3-(2-Naphtyl)-D-Ala-L-Cys(1)-L-Tyr-D-Trp-L-Lys-L-Val-L-Cys(1)-L-Thr-NH2],10.00
